Literature values as cited in US8071770B2, “Spirohydantoin aryl CGRP receptor antagonists” (Merck Sharp & Dohme Corp., priority 2005, dated 2011).
Ends that are not written are not given here.

How the values were obtained:
[1] = tested on: facial blood flow; conditions: marmoset, electrical stimulation of the trigeminal ganglion (Doods et al. 2000)
[2] = tested on: middle meningeal artery; conditions: rats, electrical stimulation of the dura mater, prior administration (Williamson et al. 1997)
[3] = tested on: facial blood flow; conditions: rat, trigeminal ganglion stimulation (Escott et al. 1995)

Row | Compound | effect on increase in facial blood flow [1] | effect on increase of middle meningeal artery diameter [2] | effect on increase of facial blood flow [3]
1 | NCCCC[C@H](NC(=O)[C@@H](Cc1cc(Br)c(O)c(Br)c1)NC(=O)N1CCC(N2Cc3ccccc3NC2=O)CC1)C(=O)N1CCN(c2ccncc2)CC1 [BIBN4096BS] | blocked | – | –
2 | CGRP (8-37): a fragment of CGRP that lacks seven N-terminal amino acid residues; a peptide CGRP antagonist (VTHRLAGLLSRSGGVVKNNFVPTNVGSKAF; ends and bridges not checked; UniProt P06881 90-119, looked up, fragment) | – | blocked | inhibited
